Results as given in PMC8429736, “Pharmacological characterization of mutant huntingtin aggregate-directed PET imaging tracer candidates” (Scientific Reports, 2021).

Experiments:
[1] = ARG, human post-mortem CTRL frontal cortex sections; assay type: binding
[2] = system: beta amyloid/tau aggregates in post-mortem AD patient brain homogenates; assay: ADbh RBA competition format; assay type: binding, human; conditions: radioligand 4; compound 1 µM
Description: For RBA in vitro binding assays, brain tissue was sliced (50 µm), weighed and homogenized in PBS (Gibco, 14190-94), 0.1% BSA with a glass pestle (10 strokes) at a concentration of 12–15 mg wet tissue per mL buffer. The crude homogenate concentration was then adjusted to 10 mg/mL (wet tissue) and stored as single-use aliquots at -80 °C.
RBA experiments using Alzheimer’s disease brain homogenates (ADbh RBA) followed the same assay principle as the RBA with recombinant HTT protein, using 0.68 mg/mL homogenate (100 µg per well with 150 µL assay volume) in assay buffer PBS, 0.01% Pluronic F127 (Sigma. P2443) and 1% DMSO after compound addition. […] Incubation at room temperature was conducted for 20 min after compound addition and for 5 h after radioligand addition. For the competition format, raw cpm were normalized towards assay controls as before, to obtain inhibition between 0 and 100%. For saturation binding, raw cpm were converted into nM as before, using a calibration line of total added radioligand, and normalized to mg of added homogenate to finally obtain pmol/mg.

aggregated ataxin 1 = assay: ARG, Sca1 mouse models; assay type: binding
Description: (§1) Twenty µm-thick sections were prepared from brains of disease mouse models and WT mice or human post-mortem brain samples by using a cryostat, mounted on superfrost slides and stored at -80 °C for a maximum of 2 weeks. On the day of the experiment, slides were adapted to room temperature for 30 min and then equilibrated by immersion into assay buffer (50 mM Tris–HCl pH 7.4; 120 mM NaCl; 5 mM KCl; 2 mM CaCl2; 1 mM MgCl2) for 20 min at room temperature.
(§2) Radioligand solutions were prepared in assay buffer. Optimal radioligand concentrations were determined in advance based on signal-to-background ratio obtained in mouse or human brain tissue. The solutions were mixed in a Coplin jar (Sigma, S5516-6EA) by gently shaking at 175 rpm for 10 min at room temperature. Sections were incubated by immersion into assay buffer containing either only radioligand (total binding or TB) or radioligand plus 10 µM of unlabeled compound (non-specific binding or NSB) for 60 min at room temperature. Afterwards slides were washed three times for 10 min with ice-cold washing buffer (50 mM Tris–HCl (pH 7.4)) at 4 °C and dipped for three seconds in ice-cold distilled water to remove buffer salts. […]

Q46 aggregates = assay: RBA competition binding against tritiated 3, Q46 aggregates; conditions: 0.3 nM tritiated 3 as radioligand; 1 µM aggregates; mean ± SD
Description: For the competition assay format, Q46 or Exon1-Q46 aggregates at 1 µM (sample volume 150 µL) were pre-incubated in a 96-well round bottom plate (Corning, #3365) for 20 min with test compounds at room temperature (assay buffer 50 mM Tris–HCl pH 8.0, 150 mM NaCl). […] Radioligand 3 at 0.3 nM was added and incubated for 1 h at 37 °C.
Samples were then transferred onto a 96-well GF/B filter plate (Perkin Elmer, #6005177) using a Filtermate Harvester, aspirated by vacuum and wells washed twice with 200 µL PBS. After drying the filter plates for 1 h at 55 °C the back of the plate was sealed with aluminum cover and 30 µL of scintillation fluid (Perkin Elmer, #6013641) per well was added. The tops of the plates were sealed, and the plates were incubated for 15 min in the dark and counted in a TopCount or MicroBeta2 reader (both Perkin Elmer).
Raw sample data collected as counts per minute (cpm) were normalized towards assay controls: 0% inhibition = radioligand + protein + vehicle, 100% inhibition = radioligand + protein + 1 µM unlabeled ligand. A 4-parameter […] fit was applied to generate IC50 values.

[3] = system: mHTT aggregates in human HD brain sections; assay: ARG, human post-mortem HD frontal cortex sections; assay type: binding
[4] = system: mHTT aggregates in HOM zQ175 brain sections; assay: In vitro ARG, single concentration, HOM zQ175 brain sections; assay type: binding, mouse; conditions: 0.5 nM
Description: as §1
Radioligand solutions were prepared in assay buffer. Optimal radioligand concentrations were determined in advance based on signal-to-background ratio obtained in mouse or human brain tissue. The solutions were mixed in a Coplin jar (Sigma, S5516-6EA) by gently shaking at 175 rpm for 10 min at room temperature. Sections were incubated by immersion into assay buffer containing either only radioligand (total binding or TB) or radioligand plus 10 µM of unlabeled compound (non-specific binding or NSB) for 60 min at room temperature. Afterwards slides were washed three times for 10 min with ice-cold washing buffer (50 mM Tris–HCl (pH 7.4)) at 4 °C and dipped for three seconds in ice-cold distilled water to remove buffer salts. The slides were dried for 3 h at 30 °C and exposed for 96 h to a Tritium Phosphor Screen (GE Healthcare, Fuji BAS-TR 2025 E) Stored radiation energy on the screen was scanned using a Phosphorimager (GE Healthcare, Typhoon FLA 7000). Densitometric data analysis of radioligand binding was performed using the MCID Analysis 7.1 software (Interfocus Imaging Ltd.). Radioisotope concentration standards (American Radiolabeled Chemicals, ART 0123C and ART 0123B) were exposed with each specimen to enable conversion of density values into tissue-equivalent ligand concentrations (e.g., fmol/mg tissue). A standard curve was created to relate the system´s internal relative optical density measurement (ROD; an inverse logarithmic function of gray level values) to the set of standard values (e.g., isotope concentration). The standard´s isotope concentration (e.g., nCi/mg) is therefore converted into tissue-equivalent ligand concentrations (e.g., fmol/mg tissue) by referring to the radioligand´s specific activity (e.g., Ci/mmol) and including decay-correction. After phosphor screen exposure the human brain sections were stained for 4 min with 0.1% toluidine blue dye solution (Sigma-Aldrich) and rinsed twice in distilled water. To differentiate gray and white matter, the slides were decolorized with 70% ethanol (Merck) for 2–5 min followed by rinse in distilled water. Gray matter appears as gray color and white matter as bluish.

[5] = molecular target: mHTT aggregates in HOM zQ175 HD mouse brain sections; assay: In vitro autoradiography (ARG) saturation binding, HOM zQ175 brain sections; conditions: HOM zQ175 12 months, cortex
Description: as §1, §2

[6] = 1 nM radioligand plus cold compound

Question: Which “NSB in CTRL brain sections” value [1, 6] does the source give for `COc1ccc(COc2ccc3oc(-c4ccc(=O)n(C)n4)nc3c2)nc1` [CHDI-180] here?
Answer: below 0.5 fmol/mg tissue

Question: And the “binding to frontal cortical sections, CTRL tissue” value ([1]; 1 nM radioligand, gray matter)?
Answer: 0.8 ± 0.3 fmol/mg tissue

Question: What about the “inhibition at 1 µM” value [2] of the same compound?
Answer: ~ 50%

Question: And the “binding to aggregated ataxin 1” value (aggregated ataxin 1; 1 nM radioligand, PcP2-82Q and SCA154Q/2Q mice)?
Answer: bound to aggregated ataxin 1

Question: And the “ARG signals compared to the R6/2 HD model” value (aggregated ataxin 1; brain sections of 2 Sca mouse models)?
Answer: much lower

Question: And the IC50 (Q46 aggregates)?
Answer: 1.2 ± 0.5 nM

Question: What about the “NSB in HD brain sections” value [3, 6] of the same compound?
Answer: below 0.5 fmol/mg tissue

Question: What about the “binding to frontal cortical sections from HD donors” value ([3]; 1 nM radioligand, gray matter) of the same compound?
Answer: 2.0 ± 0.4 fmol/mg tissue

Question: What about the white matter binding ([3]; 1 nM radioligand, human frontal cortex sections) of the same compound?
Answer: ≤ 0.5 fmol/mg tissue

Question: And the NSB ([4]; 3 month HOM Q175, CTX)?
Answer: 1.3 ± 2.2 fmol/mg

Question: And the SB ([4]; 3 month HOM Q175, CTX)?
Answer: 4.3 ± 2.3 fmol/mg

Question: And the TB ([4]; 3 month HOM Q175, CTX)?
Answer: 5.6 ± 0.3 fmol/mg

Question: What about the NSB ([4]; 3 month HOM Q175, HPC) of the same compound?
Answer: 0.3 ± 0.3 fmol/mg

Question: What about the SB ([4]; 3 month HOM Q175, HPC) of the same compound?
Answer: 4.8 ± 0.4 fmol/mg

Question: And the TB ([4]; 3 month HOM Q175, HPC)?
Answer: 5.1 ± 0.3 fmol/mg

Question: What about the NSB ([4]; 3 month HOM Q175, STR) of the same compound?
Answer: 0.4 ± 0.4 fmol/mg

Question: What about the SB ([4]; 3 month HOM Q175, STR) of the same compound?
Answer: 3.5 ± 0.3 fmol/mg

Question: What about the TB ([4]; 3 month HOM Q175, STR) of the same compound?
Answer: 3.9 ± 0.5 fmol/mg

Question: And the NSB ([4]; 6 month HOM Q175, CTX)?
Answer: 0.2 ± 0.4 fmol/mg

Question: What about the SB ([4]; 6 month HOM Q175, CTX) of the same compound?
Answer: 24.4 ± 1.4 fmol/mg

Question: And the TB ([4]; 6 month HOM Q175, CTX)?
Answer: 24.6 ± 1.0 fmol/mg

Question: What about the NSB ([4]; 6 month HOM Q175, HPC) of the same compound?
Answer: 0.1 ± 0.0 fmol/mg

Question: And the SB ([4]; 6 month HOM Q175, HPC)?
Answer: 25.0 ± 1.6 fmol/mg

Question: And the TB ([4]; 6 month HOM Q175, HPC)?
Answer: 25.1 ± 1.6 fmol/mg

Question: And the NSB ([4]; 6 month HOM Q175, STR)?
Answer: 0.3 ± 0.2 fmol/mg

Question: What about the SB ([4]; 6 month HOM Q175, STR) of the same compound?
Answer: 15.8 ± 2.7 fmol/mg

Question: And the TB ([4]; 6 month HOM Q175, STR)?
Answer: 16.1 ± 2.9 fmol/mg

Question: And the NSB ([4]; 9 month HOM Q175, CTX)?
Answer: 0.9 ± 0.8 fmol/mg

Question: What about the SB ([4]; 9 month HOM Q175, CTX) of the same compound?
Answer: 48.8 ± 8.3 fmol/mg

Question: What about the TB ([4]; 9 month HOM Q175, CTX) of the same compound?
Answer: 49.7 ± 7.4 fmol/mg

Question: And the NSB ([4]; 9 month HOM Q175, HPC)?
Answer: 0.2 ± 0.2 fmol/mg

Question: What about the SB ([4]; 9 month HOM Q175, HPC) of the same compound?
Answer: 41.3 ± 2.2 fmol/mg

Question: And the TB ([4]; 9 month HOM Q175, HPC)?
Answer: 41.5 ± 2.4 fmol/mg

Question: And the NSB ([4]; 9 month HOM Q175, STR)?
Answer: 0.4 ± 0.4 fmol/mg

Question: And the SB ([4]; 9 month HOM Q175, STR)?
Answer: 28.4 ± 2.4 fmol/mg

Question: What about the TB ([4]; 9 month HOM Q175, STR) of the same compound?
Answer: 28.8 ± 2.7 fmol/mg

Question: What about the NSB ([4]; 12 month HOM Q175, CTX) of the same compound?
Answer: 0.8 ± 0.7 fmol/mg

Question: What about the SB ([4]; 12 month HOM Q175, CTX) of the same compound?
Answer: 70.2 ± 10.5 fmol/mg

Question: And the TB ([4]; 12 month HOM Q175, CTX)?
Answer: 70.9 ± 11.0 fmol/mg

Question: And the NSB ([4]; 12 month HOM Q175, HPC, n=2)?
Answer: 0.4 ± 0.7 fmol/mg

Question: And the NSB ([4]; 12 month HOM Q175, STR)?
Answer: 0.4 ± 0.3 fmol/mg

Question: And the SB ([4]; 12 month HOM Q175, STR)?
Answer: 41.3 ± 2.8 fmol/mg

Question: And the TB ([4]; 12 month HOM Q175, STR)?
Answer: 41.6 ± 3.1 fmol/mg

Question: What about the Kd [5] of the same compound?
Answer: 1.1 nM

Question: And the “ARG Bmax” value ([5]; per mg tissue)?
Answer: 163.0 fmol/mg
